Reference: patent publication US20240398805A1, “QUINAZOLINE DERIVED COMPOUNDS AS EGFR INHIBITORS AND THEIR USES THEREOF” (ACCUTAR BIOTECHNOLOGY INC., priority 2021, published 2024)

How the values were obtained:
Assay type in all cases: cell-based
[1] = tested on: HCC827-ASV cells (human EGFR exon 20 insertion mutant A769_D770insASV); assay: Cell growth inhibition (CellTiter-Glo, 3 days) in HCC827-ASV; settings: 72 h, 3 days after administration
How it was run: (§1)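 Growth inhibition used a CellTiter-Glo luminescence read-out after 3 days of compound exposure at various concentrations. Cells were plated the day before at 5000/well in RPMI plus 10% FBS. The lines are HCC827 transduced by lentivirus with codon-optimized EGFR ASV or ERBB2 YVMA exon 20 insertions.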

[2] = tested on: HCC827-SVD cells (human EGFR exon 20 insertion mutant D770_N771 insSVD); assay: Cell growth inhibition (CellTiter-Glo, 3 days) in HCC827-SVD; settings: 72 h, 3 days after administration
How it was run: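 HCC827 cells carrying lentiviral codon-optimized EGFR D770_N771 insSVD, with endogenous EGFR knocked out by CRISPR (single clone), seeded at 5000 cells/well in RPMI with 10% FBS. Viability read by CellTiter-Glo luminescence.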

HCC827 cells = assay: Cell growth inhibition (CellTiter-Glo, 3 days) in HCC827; settings: Homo sapiens, 72 h, 3 days after administration
How it was run: (§2)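 HCC827 cells in RPMI/10% FBS and A431 cells in DMEM/10% FBS were seeded at 5000 cells/well and left overnight. Compound was then added over a concentration range for 3 days of incubation, and viability was read by CellTiter-Glo luminescence.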

A431 cells = assay: Cell growth inhibition (CellTiter-Glo, 3 days) in A431; settings: Homo sapiens, A-431, 72 h, 3 days after administration
How it was run: as §2

[3] = tested on: HCC827-YVMA cells (human ERBB2 exon20 insertion mutant A775_G776ins YVMA); assay: Cell growth inhibition (CellTiter-Glo, 3 days) in HCC827-YVMA; settings: 72 h, 3 days after administration
How it was run: as §1

GI50 [1]	GI50 [2]	GI50 (HCC827 cells)	GI50 (A431 cells)	GI50 [3]	SMILES
< 30 nM	< 30 nM	300 to 600 nM	≥ 1000 nM	< 30 nM	C=CC(=O)N1CCC(Nc2cc3c(Nc4ccc(Oc5ccnc(N6CCC(O)CC6)c5)cc4F)ncnc3cc2OC)CC1 [Example 121, 1-(4-((4-((2-fluoro-4-((2-(4-hydroxypiperidin-1-yl)pyridin-4-yl)oxy)phenyl)amino)-7-methoxyquinazolin-6-yl)amino)piperidin-1-yl)prop-2-en-1-one]
600 to 1000 nM	600 to 1000 nM	600 to 1000 nM	≥ 1000 nM	≥ 1000 nM	C=CC(=O)N1CCC(Nc2cc3c(Nc4ccc(Oc5ccnc(N6CCC(N(C)C)CC6)c5)cc4F)ncnc3cc2OC)CC1 [Example 122, 1-(4-((4-((4-((2-(4-(dimethylamino)piperidin-1-yl)pyridin-4-yl)oxy)-2-fluorophenyl)amino)-7-methoxyquinazolin-6-yl)amino)piperidin-1-yl)prop-2-en-1-one]
300 to 600 nM	300 to 600 nM	≥ 1000 nM	≥ 1000 nM	600 to 1000 nM	C=CC(=O)N1CCC(Nc2cc3c(Nc4ccc(Oc5ccnc(N6CCNCC6)c5)cc4F)ncnc3cc2OC)CC1 [Example 123, 1-(4-((4-((2-fluoro-4-((2-(piperazin-1-yl)pyridin-4-yl)oxy)phenyl)amino)-7-methoxyquinazolin-6-yl)amino)piperidin-1-yl)prop-2-en-1-one]
30 to 60 nM	30 to 60 nM	600 to 1000 nM	≥ 1000 nM	60 to 100 nM	C=CC(=O)N1CCC(Nc2cc3c(Nc4ccc(Oc5ccnc(N6CCO[C@@H](CO)C6)c5)cc4F)ncnc3cc2OC)CC1 [Example 124, (R)-1-(4-((4-((2-fluoro-4-((2-(2-(hydroxymethyl)morpholino)pyridin-4-yl)oxy)phenyl)amino)-7-methoxyquinazolin-6-yl)amino)piperidin-1-yl)prop-2-en-1-one]
100 to 300 nM	300 to 600 nM	≥ 1000 nM	≥ 1000 nM	100 to 300 nM	C=CC(=O)N1CCC(Nc2cc3c(Nc4ccc(Oc5ccnc(N6CCO[C@H](CO)C6)c5)cc4F)ncnc3cc2OC)CC1 [Example 125, (S)-1-(4-((4-((2-fluoro-4-((2-(2-(hydroxymethyl)morpholino)pyridin-4-yl)oxy)phenyl)amino)-7-methoxyquinazolin-6-yl)amino)piperidin-1-yl)prop-2-en-1-one]
60 to 100 nM	100 to 300 nM	≥ 1000 nM	≥ 1000 nM	100 to 300 nM	C=CC(=O)N1CCC(Nc2cc3c(Nc4ccc(Oc5ccnc(N6CCOC[C@H]6CO)c5)cc4F)ncnc3cc2OC)CC1 [Example 126, (R)-1-(4-((4-((2-fluoro-4-((2-(3-(hydroxymethyl)morpholino)pyridin-4-yl)oxy)phenyl)amino)-7-methoxyquinazolin-6-yl)amino)piperidin-1-yl)prop-2-en-1-one]
100 to 300 nM	100 to 300 nM	600 to 1000 nM	≥ 1000 nM	100 to 300 nM	C=CC(=O)N1CCC(Nc2cc3c(Nc4ccc(Oc5ccnc(N6CCOC[C@@H]6CO)c5)cc4F)ncnc3cc2OC)CC1 [Example 127, (S)-1-(4-((4-((2-fluoro-4-((2-(3-(hydroxymethyl)morpholino)pyridin-4-yl)oxy)phenyl)amino)-7-methoxyquinazolin-6-yl)amino)piperidin-1-yl)prop-2-en-1-one]
100 to 300 nM	60 to 100 nM	300 to 600 nM	≥ 1000 nM	100 to 300 nM	C=CC(=O)N1CCC(Nc2cc3c(Nc4ccc(Oc5ccnc(N6CCC(C)(O)CC6)c5)cc4F)ncnc3cc2OC)CC1 [Example 128, 1-(4-((4-((2-fluoro-4-((2-(4-hydroxy-4-methylpiperidin-1-yl)pyridin-4-yl)oxy)phenyl)amino)-7-methoxyquinazolin-6-yl)amino)piperidin-1-yl)prop-2-en-1-one]
30 to 60 nM	60 to 100 nM	300 to 600 nM	≥ 1000 nM	60 to 100 nM	C=CC(=O)N1CCC(Nc2cc3c(Nc4ccc(Oc5ccnc(N6CCC(C)(OC)CC6)c5)cc4F)ncnc3cc2OC)CC1 [Example 129, 1-(4-((4-((2-fluoro-4-((2-(4-methoxy-4-methylpiperidin-1-yl)pyridin-4-yl)oxy)phenyl)amino)-7-methoxyquinazolin-6-yl)amino)piperidin-1-yl)prop-2-en-1-one]
30 to 60 nM	30 to 60 nM	100 to 300 nM	300 to 600 nM	30 to 60 nM	C=CC(=O)N1CCC(Nc2cc3c(Nc4ccc(Oc5ccnc(N6CC7CCC(C6)O7)c5)cc4F)ncnc3cc2OC)CC1 [Example 130, 1-(4-((4-((4-((2-(8-oxa-3-azabicyclo[3.2.1]octan-3-yl)pyridin-4-yl)oxy)-2-fluorophenyl)amino)-7-methoxyquinazolin-6-yl)amino)piperidin-1-yl)prop-2-en-1-one]
30 to 60 nM	60 to 100 nM	600 to 1000 nM	≥ 1000 nM	60 to 100 nM	C=CC(=O)N1CCC(Nc2cc3c(Nc4ccc(Oc5ccnc(N6C[C@@H]7C[C@H]6CO7)c5)cc4F)ncnc3cc2OC)CC1 [Example 131, 1-(4-((4-((4-((2-((1S,4S)-2-oxa-5-azabicyclo[2.2.1]heptan-5-yl)pyridin-4-yl)oxy)-2-fluorophenyl)amino)-7-methoxyquinazolin-6-yl)amino)piperidin-1-yl)prop-2-en-1-one]
< 30 nM	< 30 nM	100 to 300 nM	600 to 1000 nM	< 30 nM	C=CC(=O)N1CCC(Nc2cc3c(Nc4ccc(Oc5ccnc(N6CCO[C@@H](C)C6)c5)cc4F)ncnc3cc2OC)CC1 [Example 132, (S)-1-(4-((4-((2-fluoro-4-((2-(2-methylmorpholino)pyridin-4-yl)oxy)phenyl)amino)-7-methoxyquinazolin-6-yl)amino)piperidin-1-yl)prop-2-en-1-one]
< 30 nM	< 30 nM	100 to 300 nM	600 to 1000 nM	< 30 nM	C=CC(=O)N1CCC(Nc2cc3c(Nc4ccc(Oc5ccnc(N6CCO[C@H](C)C6)c5)cc4F)ncnc3cc2OC)CC1 [Example 133, (R)-1-(4-((4-((2-fluoro-4-((2-(2-methylmorpholino)pyridin-4-yl)oxy)phenyl)amino)-7-methoxyquinazolin-6-yl)amino)piperidin-1-yl)prop-2-en-1-one]
< 30 nM	30 to 60 nM	100 to 300 nM	600 to 1000 nM	30 to 60 nM	C=CC(=O)N1CCC(Nc2cc3c(Nc4ccc(Oc5ccnc(N6C[C@H]7C[C@@H]6CO7)c5)cc4F)ncnc3cc2OC)CC1 [Example 134, 1-(4-((4-((4-((2-((1R,4R)-2-oxa-5-azabicyclo[2.2.1]heptan-5-yl)pyridin-4-yl)oxy)-2-fluorophenyl)amino)-7-methoxyquinazolin-6-yl)amino)piperidin-1-yl)prop-2-en-1-one]
< 30 nM	60 to 100 nM	300 to 600 nM	≥ 1000 nM	30 to 60 nM	C=CC(=O)N1CCC(Nc2cc3c(Nc4ccc(Oc5ccnc(N6CCOC[C@@H]6C)c5)cc4F)ncnc3cc2OC)CC1 [Example 135, (S)-1-(4-((4-((2-fluoro-4-((2-(3-methylmorpholino)pyridin-4-yl)oxy)phenyl)amino)-7-methoxyquinazolin-6-yl)amino)piperidin-1-yl)prop-2-en-1-one]
100 to 300 nM	100 to 300 nM	≥ 1000 nM	≥ 1000 nM	300 to 600 nM	C=CC(=O)N1CCC(Nc2cc3c(Nc4ccc(Oc5ccnc(N6CCOC[C@H]6C)c5)cc4F)ncnc3cc2OC)CC1 [Example 137, (R)-1-(4-((4-((2-fluoro-4-((2-(3-methylmorpholino)pyridin-4-yl)oxy)phenyl)amino)-7-methoxyquinazolin-6-yl)amino)piperidin-1-yl)prop-2-en-1-one]
< 30 nM	< 30 nM	100 to 300 nM	≥ 1000 nM	< 30 nM	C=CC(=O)N1CCC(Nc2cc3c(Nc4ccc(Oc5ccnc(N6CCOC(C)(C)C6)c5)cc4F)ncnc3cc2OC)CC1 [Example 138, 1-(4-((4-((4-((2-(2,2-dimethylmorpholino)pyridin-4-yl)oxy)-2-fluorophenyl)amino)-7-methoxyquinazolin-6-yl)amino)piperidin-1-yl)prop-2-en-1-one]
60 to 100 nM	100 to 300 nM	100 to 300 nM	300 to 600 nM	100 to 300 nM	C=CC(=O)N1CCC(Nc2cc3c(Nc4ccc(Oc5ccnc(N6CC(O)C6)c5)cc4F)ncnc3cc2OC)CC1 [Example 139, 1-(4-((4-((2-fluoro-4-((2-(3-hydroxyazetidin-1-yl)pyridin-4-yl)oxy)phenyl)amino)-7-methoxyquinazolin-6-yl)amino)piperidin-1-yl)prop-2-en-1-one]

SMILES	GI50 [1]	GI50 [2]	GI50 (HCC827 cells)	GI50 (A431 cells)	GI50 [3]
C=CC(=O)N1CCC(Nc2cc3c(Nc4ccc(Oc5ccnc(N6C7CCC6COC7)c5)cc4F)ncnc3cc2OC)CC1 [Example 136, 1-(4-((4-((4-((2-(3-oxa-8-azabicyclo[3.2.1]octan-8-yl)pyridin-4-yl)oxy)-2-fluorophenyl)amino)-7-methoxyquinazolin-6-yl)amino)piperidin-1-yl)prop-2-en-1-one]	30 to 60 nM	30 to 60 nM	300 to 600 nM	600 to 1000 nM	30 to 60 nM
